In PubChem BioAssay (NCI):
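The concentration for 50% growth inhibition is given as GI50. TGI: concentration producing complete growth inhibition.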

Key:
Test in all cases: NCI-60 cell line screen, 384-well format
UACC-257 melanoma = system: UACC-257 melanoma
OVCAR-5 ovarian = system: OVCAR-5 ovarian
NCI-H322M lung = system: NCI-H322M lung
LOX IMVI melanoma = system: LOX IMVI melanoma
A549 NSCLC = system: A549 NSCLC
HCC-2998 colon = system: HCC-2998 colon
NCI-H23 lung = system: NCI-H23 lung
COLO 205 colon = system: COLO 205 colon
DU-145 prostate = system: DU-145 prostate
SK-MEL-28 melanoma = system: SK-MEL-28 melanoma
SF-268 CNS = system: SF-268 CNS
SF-295 CNS = system: SF-295 CNS
HL-60(TB) leukemia = system: HL-60(TB) leukemia
SR leukemia = system: SR leukemia
HOP-92 NSCLC = system: HOP-92 NSCLC
SF-539 CNS = system: SF-539 CNS
M14 melanoma = system: M14 melanoma
MCF7 breast = system: MCF7 breast
MALME-3M melanoma = system: MALME-3M melanoma
MDA-MB-231 breast = system: MDA-MB-231 breast
OVCAR-3 ovarian = system: OVCAR-3 ovarian
OVCAR-4 ovarian = system: OVCAR-4 ovarian
SNB-19 CNS = system: SNB-19 CNS
SN12C renal = system: SN12C renal
U251 glioblastoma = system: U251 glioblastoma
SW-620 colon = system: SW-620 colon
HCT-116 colon = system: HCT-116 colon
MOLT-4 leukemia = system: MOLT-4 leukemia
K-562 leukemia = system: K-562 leukemia

Compound COc1ccc2c(c[n+](C)c3c4cc5c(cc4ccc23)OCO5)c1OC has a GI50 (UACC-257 melanoma) of 1230 nM, a TGI (UACC-257 melanoma) of 2480 nM and a GI50 (OVCAR-5 ovarian) of 1760 nM. For the same compound, the TGI (OVCAR-5 ovarian) was 3160 nM, the GI50 (NCI-H322M lung) was 1770 nM and the TGI (NCI-H322M lung) was 3190 nM. The GI50 (LOX IMVI melanoma) was 1100 nM, the TGI (LOX IMVI melanoma) was 2310 nM and the GI50 (A549 NSCLC) was 1830 nM. It also gave a TGI (A549 NSCLC) of 3270 nM, a GI50 (HCC-2998 colon) of 1590 nM and a TGI (HCC-2998 colon) of 2940 nM. It also gave a GI50 (NCI-H23 lung) of 1000 nM, a TGI (NCI-H23 lung) of 2160 nM and a GI50 (COLO 205 colon) of 1570 nM. For the same compound, the TGI (COLO 205 colon) was 2920 nM, the GI50 (DU-145 prostate) was 1460 nM and the TGI (DU-145 prostate) was 2770 nM. The GI50 (SK-MEL-28 melanoma) was 1900 nM, the TGI (SK-MEL-28 melanoma) was 3350 nM and the GI50 (SF-268 CNS) was 1340 nM. It also gave a TGI (SF-268 CNS) of 2620 nM, a GI50 (SF-295 CNS) of 1740 nM and a TGI (SF-295 CNS) of 3150 nM. It also gave a GI50 (HL-60(TB) leukemia) of 182 nM, a TGI (HL-60(TB) leukemia) of 324 nM and a GI50 (SR leukemia) of 174 nM. For the same compound, the TGI (SR leukemia) was 317 nM, the GI50 (HOP-92 NSCLC) was 1510 nM and the TGI (HOP-92 NSCLC) was 2850 nM. For the same compound, the GI50 (SF-539 CNS) was 1630 nM, the TGI (SF-539 CNS) was 2990 nM and the GI50 (M14 melanoma) was 1590 nM. The TGI (M14 melanoma) was 2940 nM, the GI50 (MCF7 breast) was 1130 nM and the TGI (MCF7 breast) was 2350 nM. For the same compound, the GI50 (MALME-3M melanoma) was 748 nM, the TGI (MALME-3M melanoma) was 1960 nM and the GI50 (MDA-MB-231 breast) was 721 nM. It also gave a TGI (MDA-MB-231 breast) of 1990 nM, a GI50 (OVCAR-3 ovarian) of 362 nM and a TGI (OVCAR-3 ovarian) of 1330 nM. It also gave a GI50 (OVCAR-4 ovarian) of 1500 nM, a TGI (OVCAR-4 ovarian) of 2870 nM and a GI50 (SNB-19 CNS) of 1500 nM. The TGI (SNB-19 CNS) was 2840 nM, the GI50 (SN12C renal) was 615 nM and the TGI (SN12C renal) was 1890 nM. It also gave a GI50 (U251 glioblastoma) of 866 nM, a TGI (U251 glioblastoma) of 2080 nM and a GI50 (SW-620 colon) of 267 nM. The TGI (SW-620 colon) was 758 nM, the GI50 (HCT-116 colon) was 399 nM and the TGI (HCT-116 colon) was 1380 nM. The GI50 (MOLT-4 leukemia) was 163 nM, the TGI (MOLT-4 leukemia) was 300 nM and the GI50 (K-562 leukemia) was 1610 nM. The TGI (K-562 leukemia) was 2970 nM.
